Assays:
Ob/ob mice = experiment: Effect of a SERCA agonist on the level of blood glucose; assay type: in vivo; conditions: Mus musculus, ip, 96 h, 50 mg/kg i.p. once a day for 5 days, fasting glucose at baseline and 4 days after administration, read-out: Glucose level reduction
Experimental: Ob/ob mice (10 weeks old, n=7) were intraperitoneally (i.p.) injected with 100 μL of a solution containing 0 (vehicle) or 50 mg/kg of a test compound once a day for a total of 5 days. Fasting glucose was measured at baseline and 4 days after the administration of the test compound. Glucose levels were measured in blood samples drawn from the tail vein using a handheld glucose sensor. Compound effects on blood glucose are shown in Table 5 where A represents a 10-20% reduction in blood glucose, B represents a 21-30% reduction in blood glucose, and C represents a greater than 30% reduction in blood glucose levels.

SH-SY5Y cells = experiment: Cell rescue assay: protection against ß-amyloid-induced cell toxicity; assay type: cell-based; conditions: Homo sapiens, 96 h, 7.5 uM compound, AB 1-42 at 10 uM, 4 days, OD at 490 nm, read-out: Cell Survival % (cell rescue)
Experimental: Protection against ß-amyloid-induced cell toxicity. Chonpathompikunlert et al. Eu. J. Pharmacol. 2011, 650, 544-549. Human SH-SY5Y cells are suspended in media containing 2% FBS and 2× Gentamicin. Transfer 100 ul/well culture to 96-well plate (20,000 cells/well; passage #5) and incubate overnight. Prepare compound samples at 30 uM. Add 50 ul of the samples to the cells [[…]] and incubate 3 hours. Make stock of 40 uM AB 1-42 peptide in assay media. Transfer 50 ul/well to cells/compounds in assay plate. The final assay volume is 200 ul/well, containing 2% FBS, 2× Gentamicin, 7.5 uM compound and AB 1-42 at 10 uM. Incubate for 4 days then add 20 ul of Promega Substrate Cell Titer 96 Aqueous One Solution Reagent to each well. Incubate 37 OC and read OD at 490 nm. The results are summarized in Table 3, where A represents a value equal to or greater than 50% cell rescue, B represents a value greater than 10% and less than 50% cell rescue, and C represents a value greater than 1% and less than or equal to 10% cell rescue.

SERCA = target: T1, SERCA (Homo sapiens, UniProt P16615); experiment: Ca-ATPase assay (NADH-linked, enzyme-coupled ATPase assay); assay type: biochemical; conditions: microsomal preparations from HEK 293 cells, Vmax from Hill fit of ATPase calcium-dependence, relative to controls
T1 construct: microsomal preparations from HEK 293 cells; endogenous in cells; host or cells: HEK 293 cells (microsomal preparation)
Experimental: A Ca-ATPase assay was performed using microsomal preparations from HEK 293 cells at a series of calcium concentrations corresponding to the physiological range, relative to controls. The ATP hydrolysis rate was measured over a range of calcium concentrations in the presence of test compounds using an NADH-linked, enzyme-coupled ATPase assay adapted for 96-well microplates, with Vmax determined by fitting the ATPase calcium-dependence to the Hill function. Each well contained 2 μg or 7 μg of SR vesicles (optimized for skeletal or cardiac SR, respectively), 50 mM MOPS (pH 7.0), 100 mM KCl, 5 mM MgCl2, 1 mM EGTA, 0.2 mM NADH, 1 mM phosphoenol pyruvate, 5 IU pyruvate kinase, 5 IU lactate dehydrogenase, and 3.5 μg/mL A23187 (a calcium ionophore). CaCl2 was added to set free [Ca^2+] to the specific values. The assay was started upon addition of ATP at a final concentration of 5 mM, and read in a SpectraMax Plus microplate spectrophotometer. The results are summarized in Table 4, where A represents an increase in SERCA Vmax greater than or equal to 50% and B represents a value greater than 10% and less than 50%.

CSM14.1 neuronal cells = experiment: Cell survival assay (thapsigargin-treated cells, CELLTITER-GLO luminescence); assay type: cell-based; conditions: compound 2 hrs before about 15 μM thapsigargin, overnight
Experimental: CSM14.1 neuronal cells were maintained in Complete Medium at 32° C.; wherein the Complete Medium contained Dulbecco's modified eagle medium (DMEM) with 10% fetal bovine serum (FSB), 1% L-glutamine, 100 IU/mL penicillin, and 100 μg/mL streptomycin. The cells were recovered from cultures by trypsinization and then seeded in 384 well plates (Greiner #781098) at a concentration of 1,000 cells/well in 20 μL of DMEM Assay Medium, wherein the DMEM Assay Medium contained 2% FBS, 100 IU/mL penicillin, and 100 μg/mL streptomycin. Seeding was performed using a MultiDrop Combi reagent broadcaster. The plates were incubated overnight at 32° C. A test compound was prepared by 2-fold serial dilution in 100% DMSO using a BIOMEK® 2000 liquid handler (Beckman Coulter). A dose-response curve containing 10 concentrations of the test compound was obtained. Using a BIOMEK® FX liquid handler (Beckman Coulter), 2.5 μL of the test compound was transferred from the 100% DMSO serial dilution plate to an intermediate plate containing 47.5 μL of DMEM Assay Medium containing 2% FBS, 100 IU/mL penicillin, and 100 μg/mL streptomycin and mixed. To reduce or eliminate the interference from the compound's precipitation, 6 μL of the diluted compound was immediately transferred to the assay plate to achieve a high compound concentration of 100 μM in 99% DMEM Assay Medium and 1% DMSO. After the assay plates were incubated for 2 hrs, 4 μL of 112.5 μM thapsigargin (TG) (DMSO stock diluted into Assay TC Medium) was dispensed into each testing well with a MultiDrop Combi reagent broadcaster for a final concentration of about 15 μM TG. The tissue culture media (4 μL) containing vehicle only was transferred manually to each control cell using a 16 channel electronic pipette. After the plates were incubated overnight (about 16 to 24 hrs), CELLTITER-GLO® (Promega) (16 μL) was added to all wells and luminescence was measured. High luminescence indicates cell survival. The biological results are summarized in Table 1 where A represents a cell viability EC50 less than 1 μM and B represents a value greater than 1 μM and less than 10 μM and C represents a value equal to or greater than 10 μM and less than 20 μM.

HEK293 cells; N2a cells = experiment: Cell rescue assay: protection against thapsigargin (TG)-induced cell-death (ALAMARBLUE); assay type: cell-based, Human; Mouse; conditions: Homo sapiens; compound 20 μM, 2 hrs before thapsigargin (15 μM HEK293, 1 μM N2a), 24 hrs; viability as % RFU compared to control; read-out: Cell Survival %
Experimental: Protection against Thapsigargin (TG)-induced Cell-death. Human embryonic kidney (HEK293) cells were grown in Dulbecco's Modified Eagle's Medium (DMEM) with 10% FBS and 1% antibiotic antimycotic solution (ABAM). Mouse neuroblastoma (N2a) cells were grown in 1:1 DMEM:OPTI-MEM® with 5% FBS and 1% ABAM. All cells were grown in 10% CO2 in a humidified environment of the incubator. Cells grown in 96-well plates were exposed to a test compound (20 μM) for 2 hrs before addition of thapsigargin (15 μM for HEK293 cells and 1 μM for N2a cells) to induce ER stress. After incubation in cell-culture incubator for 24 hrs, ALAMARBLUE® regent (10% v/v) was added to the wells. Fluorescence reading was taken 2 hrs after the addition of the ALAMARBLUE® regent. Cell-viability was calculated as a percentage of relative fluorescence unit (RFU) compared to control. […] The biological results are summarized in Table 2, where each compound was tested at 20 μM and where A represents a viability greater than 50%, B represents a viability greater than 10% and less than 50%, C represents a value at or below 10%.

T1 sequence (P16615 whole entry): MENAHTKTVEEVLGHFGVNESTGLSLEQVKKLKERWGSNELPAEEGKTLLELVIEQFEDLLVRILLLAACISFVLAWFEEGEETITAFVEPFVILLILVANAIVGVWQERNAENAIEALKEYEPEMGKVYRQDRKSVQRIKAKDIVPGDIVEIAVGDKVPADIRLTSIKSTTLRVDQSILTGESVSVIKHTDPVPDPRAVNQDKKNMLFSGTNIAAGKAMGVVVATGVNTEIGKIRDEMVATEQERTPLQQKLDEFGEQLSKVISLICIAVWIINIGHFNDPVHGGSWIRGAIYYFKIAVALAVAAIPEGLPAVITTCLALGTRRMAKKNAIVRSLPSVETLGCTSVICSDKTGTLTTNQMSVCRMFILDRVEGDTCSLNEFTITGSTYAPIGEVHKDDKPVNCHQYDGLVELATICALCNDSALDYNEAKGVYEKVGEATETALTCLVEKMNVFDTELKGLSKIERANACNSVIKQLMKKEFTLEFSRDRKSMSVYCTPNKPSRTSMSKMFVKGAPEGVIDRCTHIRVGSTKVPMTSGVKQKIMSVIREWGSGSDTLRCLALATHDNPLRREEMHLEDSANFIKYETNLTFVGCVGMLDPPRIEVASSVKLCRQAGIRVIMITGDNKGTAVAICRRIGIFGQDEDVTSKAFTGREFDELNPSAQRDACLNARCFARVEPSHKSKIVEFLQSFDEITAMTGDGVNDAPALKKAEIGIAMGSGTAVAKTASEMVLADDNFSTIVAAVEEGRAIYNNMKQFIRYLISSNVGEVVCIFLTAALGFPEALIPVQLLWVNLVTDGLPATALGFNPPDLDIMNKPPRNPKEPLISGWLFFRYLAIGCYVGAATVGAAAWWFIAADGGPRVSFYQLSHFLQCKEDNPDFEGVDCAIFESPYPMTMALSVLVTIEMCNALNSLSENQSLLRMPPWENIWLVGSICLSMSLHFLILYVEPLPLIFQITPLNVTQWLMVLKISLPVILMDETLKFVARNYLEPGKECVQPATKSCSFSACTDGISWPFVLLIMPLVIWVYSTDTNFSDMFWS

SMILES	inhibition in vivo at 50 mg/kg (Ob/ob mice) [%]	viability at 7.5 µM (SH-SY5Y cells) [%]	SERCA Vmax Increase (SERCA)	EC50 (CSM14.1 neuronal cells) [µM]	viability at 20 µM (HEK293 cells; N2a cells) [%]
Cc1ccc2cccc(C(=O)Nc3ccc(OC(C)C)cc3)c2n1 [A1, N-(4-Isopropoxyphenyl)-2-methylquinoline-8-carboxamide]	> 30	10 to 50	A (an increase in SERCA Vmax greater than or equal to 50%)	1 to 10	> 50
Cc1ccc2cccc(C(=O)Nc3ccc(Cl)cc3)c2n1 [A2, N-(4-Chlorophenyl)-2-methylquinoline-8-carboxamide]	> 30	≥ 50	B (a value greater than 10% and less than 50%)	1 to 10	> 50
Cc1ccc2cccc(C(=O)Nc3cccc(F)c3)c2n1 [A3, N-(3-Fluorophenyl)-2-methylquinoline-8-carboxamide]	10 to 20	10 to 50	B (a value greater than 10% and less than 50%)	10 to 20	10 to 50
Cc1ccc2cccc(C(=O)Nc3ccc(N(C)C)cc3)c2n1 [A4, N-(4-(Dimethylamino)phenyl)-2-methylquinoline-8-carboxamide]	21 to 30	10 to 50	A (an increase in SERCA Vmax greater than or equal to 50%)	< 1	10 to 50
Cc1ccc(NC(=O)c2cccc3ccc(C)nc23)cc1 [A5, N-(4-Methylphenyl)-2-methylquinoline-8-carboxamide]	21 to 30	≥ 50	B (a value greater than 10% and less than 50%)	1 to 10	> 50
Cc1ccc2cccc(C(=O)Nc3cc(Br)cs3)c2n1 [B1, N-(4-Bromothiophen-2-yl)-2-methylquinoline-8-carboxamide]	> 30	10 to 50	A (an increase in SERCA Vmax greater than or equal to 50%)	1 to 10	> 50
Cc1ccc2cccc(C(=O)Nc3ccc(Br)s3)c2n1 [B2, N-(5-Bromothiophen-2-yl)-2-methylquinoline-8-carboxamide]	21 to 30	10 to 50	A (an increase in SERCA Vmax greater than or equal to 50%)	1 to 10	> 50
Cc1ccc2cccc(C(=O)Nc3ccc(C)s3)c2n1 [B3, 2-Methyl-N-(5-methylthiophen-2-yl)quinoline-8-carboxamide]	10 to 20	1 to 10	B (a value greater than 10% and less than 50%)	1 to 10	≤ 10
Cc1ccc2cccc(C(=O)Nc3cccs3)c2n1 [B4, 2-Methyl-N-(thiophen-2-yl)quinoline-8-carboxamide]	> 30	≥ 50	B (a value greater than 10% and less than 50%)	1 to 10	> 50
Cc1ccc2cccc(C(=O)Nc3ccc(C4CC4)s3)c2n1 [B5, N-(5-Cyclopropylthiophen-2-yl)-2-methylquinoline-8-carboxamide]	10 to 20	1 to 10	A (an increase in SERCA Vmax greater than or equal to 50%)	1 to 10	≤ 10

— patent US10730839B2, “Quinolines as cytoprotective agents” (priority 2016, dated 2020)
